# Laboratory results as given in US20050075398A1, “Neuroprotectin D1 protects against cellular apoptosis, stroke damage, alzheimer's disease and retinal diseases” (priority 2003, published 2005).
# Entries after “also recorded” stand apart in the source; their conditions may differ.
# Key:
# [1] = test system: polymorphonuclear leukocyte infiltration (myeloperoxidase activity); assay: Myeloperoxidase (MPO) activity assay in hippocampus and neocortex after MCA-O and reperfusion; format: in vivo, mouse; conditions: 1 h MCA-O, 48 h reperfusion
# Procedure: Middle Cerebral Artery Occlusion (MCA-O) and reperfusion. Experimental protocols were reviewed and approved by the Institutional Animal Care and Use Committee of Louisiana State University Health Sciences Center, New Orleans. Mice (20-25 g body wt) were induced with 2% isoflurane in a mixture of 70% nitrous oxide and 30% oxygen. Anesthesia was maintained with 1% isoflurane. Temperature was maintained at 36.5-37.5° C. using a Harvard homeothermic blanket. P 10 polyethylene catheters were placed in the femoral artery and vein, and the blood pressure was monitored. Arterial blood was analyzed for PO2, PCO2, and pH after 1 h of ischemia and 30 min after the onset of reperfusion. The common carotid and external carotid arteries were temporarily ligated with a retracting suture, and the external carotid artery was dissected just proximal to its bifurcation. The occluding filament was introduced from the external carotid artery and advanced to the internal carotid artery. The AVM micro clip was removed. The filament was advanced so that the blunted tip lay in the anterior cerebral artery and the side of the filament occluded the origin of the middle cerebral artery (MCA). The stump of the external carotid artery was ligated, and tension on the retracting suture to the common carotid artery was gently released, restoring blood flow to the carotid system.
# Occlusion of the middle cerebral artery (MCA-O) was maintained for 1 h; reperfusion was then established by delicate retrieval of the occluding suture from the arterial lumen, restoring blood flow to the region of the MCA. The mice were then killed, and the hippocampus and brain cortex rapidly dissected and frozen. Samples were kept at −80° C. until analysis. In some experiments, aspirin (7.5 mg/kg) was administered by gavage 15 min before MCA-O.
# Polymorphonuclear leukocyte infiltration measurement by the myeloperoxidase (MPO) assay. Inhibition of leukocyte infiltration by 10,17S-docosatriene (NPD1) or docosahexaenoic acid (DHA) was measured in mouse hippocampus and neocortex after 1 h of middle cerebral artery occlusion (MCA-O) and 48 h of reperfusion. Lipids were delivered for each experiment by perfusion (250 nl/h) through Alzet minipumps implanted into the third ventricle. Hippocampus and neocortex from the ipsilateral (MCA-O-reperfusion) and contralateral sides were rapidly dissected. Brain samples were assayed for myeloperoxidase activity as described in Huang, J., Choudhri, T. F., Winfree, C. J., McTaggart, R. A., Kiss, S., Mocco, J., Kim, L. J., Protopsaltis, T. S., Zhang, Y., Pinsky, D. J., and Connolly Jr., E. S. (2000) Stroke 31, 3047-3053. Briefly, brain tissues were homogenized in 10 mM phosphate buffer (pH 7.4), then frozen and thawed with liquid N2 followed by sonication. Samples were precipitated at 10,000×g for 10 min, then aliquots of supernatants were added to 10 mM phosphate buffer (pH 6.0) and a substrate solution containing o-dianisidine (Sigma; St. Louis, Mo.) and 0.025% hydrogen peroxide, and finally incubated at 37° C. for 45 min. Spectrophotometric detection was obtained at 460 nm.
# [2] = test system: Aβ40 and Aβ42 peptide secretion; assay: Aβ40 and Aβ42 peptide secretion by aging HN cells (Western immunoblot of medium); format: cell-based, human; conditions: aging HN cells cultured up to 8 weeks; DHA 50 nM or IL-1β 10 ng/ml continuously in medium
# Procedure: Human Neural (HN) Cells. HN cells in primary culture, starting as primary spheroids (CC-2599, Clonetics, Walkersville, Md.), were grown in neural progenitor maintenance medium (NPMM) containing human epidermal and fibroblast growth factor, gentamicin/amphotericin (G/A1000), and neural survival factor-1 for up to 8 weeks. […] (Data not shown).
# Additions of IL-1β and DHA to the Growth Medium. After 1 week of HN cell growth, IL-1β (10 ng/ml) or DHA (50 nM) was added to the NPMM culture medium.
# To determine the effect of cytokine-mediated stress on aging HN cells, AP peptide release was assayed in the continuous presence in the culture medium of IL-1β, an inducer of reactive oxygen species (ROS) generation and oxidative stress as described in Lynch, A. M., Moore, M., Craig, S., Lonergan, P. E., Martin, D. S., Lynch, M. A. (2003) J. Biol. Chem., 278: 51075-51084; and Kaur, J., Dhaunsi, G. S., Turner, R. B. (2004) Med. Princ. Pract., 13: 26-29. Parallel experiments in aging HN cells were performed in the presence of control neuro-progenitor maintenance medium (NPMM) and the continuous presence of NPMM+DHA.
# Bcl-2 gene expression = assay: HGU133 GeneChip DNA array in HN cells: Bcl-2; format: cell-based, human; conditions: Aβ42 25 μM, DHA 50 nM or NPD1 50 nM, 18 h, nsc = no significant change
# Bcl-xL gene expression = assay: HGU133 GeneChip DNA array in HN cells: Bcl-xL; format: cell-based, human; conditions: Aβ42 25 μM, DHA 50 nM or NPD1 50 nM, 18 h, nsc = no significant change
# [3] = test system: NF-κB-DNA binding activity; assay: EMSA of NF-κB in hippocampus after MCA-O; format: in vivo, mouse; conditions: ipsilateral hippocampus; 1 h MCA-O, 2 h reperfusion; infused into third ventricle 3 h at 0.25 μl/h (NPD1 0.16 μg/ml)
# Procedure: Electrophoretic mobility-shift assay (EMSA) of human AP1, HIF-1α, NF-κBp50/p65, and STAT-1α. Nuclear protein extracts (NPXTs) were prepared from one to three 3.5 cm-diameter wells of HN cells and quantitated. NPXTs (5 μg) derived from HN cells were incubated with[γ-^32P]-ATP (˜3000 Ci/mmol)-end-labeled AP1, HIF-1α, NF-κκBp50/p65, or STAT-1α consensus and mutant oligonucleotides in 5-μl volumes, reacted for 30 min on ice, analyzed on 5% or 10% acrylamide/90 mM Tris-borate pH 8.4, 1 mM EDTA (TBE) gels, dried onto 2-mm Whatman filter paper at 80° C. for 2 h, and phosphorimaged using a Typhoon Variable Mode Imager (Amersham Pharmacia Biotech, Piscataway, N.J. ).
# FIGS. 7A, 7B, and 7C show mouse hippocampus after 1 h MCA-O was followed by 2 h reperfusion, where either vehicle, DHA, or 10,17S-docosatriene (NPD1) (0.16 μg/ml) was infused into the third ventricle for 3 h at 0.25 μl/h. […] NF-κB was increased over two fold in the ipsilateral hippocampus after MCA-O, and the infusion of either DHA or 10,17S-docosatriene (NPD1) inhibited ischemia-reperfusion-induced NF-κB activation by 28% and 48%, respectively (FIG. 7A).
# COX-2 expression = assay: COX-2 mRNA abundance in ipsilateral hippocampus after MCA-O; format: in vivo, mouse; conditions: 1 h MCA-O, 2 h reperfusion, infused into third ventricle (NPD1 0.16 μg/ml)
# Procedure: COX-2 RNA abundance in hippocampus and HN cells. Abundance of human-specific COX-1 and COX-2 RNA message was assayed using RT-PCR as described in Bazan, N. G., and Lukiw, W. J. (2002) J. Biol. Chem. 277, 30359-30367.
# To determine COX-1 and COX-2 expression, mRNA abundance in the ipsilateral hippocampus was measured. […] A 3-fold increase of COX-2 was seen due to MCA-O reperfusion (FIG. 7C). The infusion of the precursor DHA as well as its product 10,17S-docosatriene (NPD1) inhibited COX-2 expression by 14% and 52%, respectively.
# ARPE-19 cells = assay: Hoechst staining, TNFα/H2O2 oxidative stress-induced apoptosis; format: cell-based, human; conditions: 50 nM added with TNFα 10 ng/ml plus H2O2 (400-800 μM); 14 h
# Procedure: ARPE-19 cell culture and chemicals: ARPE-19 cells (L. M. Hjelmeland, ATCC # CRL-2302) were grown and maintained in DMEM-F12 medium supplemented with 10% FBS and incubated at 37° C. with a constant supply of 5% CO2. ARPE-19 cells are spontaneously transformed human retinal pigment epithelial cells that conserve cellular biological and functional properties. All chemicals were purchased from Sigma Chemical Co. (St. Louis, Mo.) unless otherwise indicated.
# Hoechst staining: ARPE-19 cells were loaded with 2 μM Hoechst dissolved in a Locke's solution (Promega, Madison, Wis.) and incubated one h at 37° C. before imaging. Cells were then washed once with PBS and viewed using a Nikon DIAPHOT 200 microscope under UV fluorescence. Images were recorded by a Hamamatsu Color Chilled 3CCD camera and Photoshop 5.0 software, as described in Mukherjee, P. K., DeCoster, M. A., Campbell, F. Z., Davis, R. J. & Bazan, N. G. (1999) J. Biol. Chem. 274:6493-6498.
# Several experimental conditions that result in reproducible oxidative-stress-induced apoptosis in ARPE-19 cells were tested. One condition chosen was the combination of TNFα with H2O2, both in relatively low concentrations. Typically 10 ng/ml of TNFα and 400-800 μM H2O2 led to marked increase in Hoechst-positive cells (Data not shown). Neither TNFα nor H2O2 alone triggered a significant effect under these conditions. (Data not shown).
# Serum starvation made ARPE-19 cells more sensitive to oxidative stress-triggered apoptosis induced by TNFα/H2O2. Cells were grown in culture for 72 h in the presence of BSA (3.35 μM) with or without DHA (6.7 μM). Endogenous NPD1 formation was enhanced by BSA-DHA (FIG. 12A).
# In the next experiment, confluent cells were starved for 8 h, then TNFα/H2O2 was added and incubated for 14 h before staining with Hoechst reagent. NPD1 (50 nM) was added at the time of adding TNFα/H2O2. […] When the TNFα concentration (10 ng/ml) was maintained and H2O2 concentration was decreased from 800 to 400 μM, fewer Hoechst-positive cells were seen. […] (Data not shown).
# [4] = test system: polymorphonuclear leukocyte infiltration; assay: Zymosan-induced peritonitis, leukocyte infiltration; format: in vivo, mouse; conditions: zymosan-induced peritonitis, FVB mice; i.v. bolus 1.5 min before Zymosan A; lavage at 2 h
# Procedure: The inhibition of leukocyte infiltration in zymosan-induced peritonitis by 4,17S-diHDHA and 10,17S-docosatriene (NPD1) was tested. […] Peritonitis was induced in 6- to 8-week-old male FVB mice (Charles River Laboratories) by peritoneal injection of 1 mg Zymosan A. The compounds 4,17S- and 10,17S-diHDHA were injected by intravenous bolus injection, 1.5 minutes before Zymosan A treatment. Two hours after induction of peritonitis, rapid peritoneal lavages were collected, and cell type enumeration was performed.
# [5] = test system: prostaglandin E2 (PGE2) formation; assay: ELISA of PGE2 in hippocampus during reperfusion after MCA-O; format: in vivo, mouse; conditions: aspirin 7.52 mg/kg by gavage 15 min before MCA-O; C57BL/6 mice
# Procedure: To confirm that the aspirin dose administered by gavage did reach the brain, the time course for prostaglandin E2, LTB4, and lipoxin A4 production was determined in the hippocampus in parallel assays. The time course of prostaglandin E2, leukotriene B4, and lipoxin A4 formation was followed in mouse hippocampus after 1-h middle cerebral artery occlusion (MCA-O), followed by reperfusion with (FIG. 2B) or without (FIG. 2A) aspirin treatment. Detection of the compounds was performed by sensitive and specific ELISA, in tandem, for prostaglandin E2 (PGE2), leukotriene B4 (LTB4), and lipoxins (LXA4) (Neogen, Lexington, Ky.). […] Maximal LTB4 was generated in aspirin-treated hippocampus by 8 h, as was the case with lipoxin A4, which also peaked within 8 h.
# [6] = 1 μg or 3 μg over 48 h (dose of the value not stated)
molecule,measurement,setting,value
"10,17S-docosatriene methyl ester [10,17S-docosatriene (NPD1) methyl ester]","inhibition of ipsilateral myeloperoxidase activity, hippocampus",[1]; [6],49%
same,"inhibition of ipsilateral myeloperoxidase activity, neocortex",[1]; [6],97%
"IL-1β: human recombinant interleukin 1-beta, cytokine stressor",effect on Aβ peptide (Aβ40 and Aβ42) secretion,[2],enhanced
"CC/C=C\C/C=C\C/C=C\C/C=C\C/C=C\C/C=C\CCC(=O)O [DHA, docosahexaenoic acid]","inhibition of myeloperoxidase activity, hippocampus",[1]; 2 μg over 48 h perfusion,60%
same,"inhibition of myeloperoxidase activity, neocortex",[1]; 2 μg over 48 h perfusion,no inhibition
same,"inhibition of myeloperoxidase activity, hippocampus",[1]; 20 μg over 48 h perfusion,72%
same,"inhibition of myeloperoxidase activity, neocortex",[1]; 20 μg over 48 h perfusion,40%
same,"inhibition of myeloperoxidase activity, hippocampus",[1]; 200 μg over 48 h perfusion,82%
same,"inhibition of myeloperoxidase activity, neocortex",[1]; 200 μg over 48 h perfusion,73%
same,"Bcl-2 gene expression, fold change over untreated controls",Bcl-2 gene expression,+2.5 fold
same,"Bcl-xL gene expression, fold change over untreated controls",Bcl-xL gene expression,+1.5 fold
same,inhibition of ischemia-reperfusion-induced NF-κB activation,[3],28%
same,inhibition of COX-2 expression (mRNA),COX-2 expression,14%
O=C(O)CCC[C@H](O)\C=C/C=C/C=C/[C@H](O)C/C=C\CCCCCO [20-OH-LTB4],inhibition of oxidative stress (TNFα/H2O2)-induced Hoechst-positive cells / apoptosis,ARPE-19 cells,"neither PGE2, LTB4, nor 20-OH-LTB4 (each at 50 nM) was able to elicit the degree of inhibition"
"CCC=CCC(O)C=CC=CCC=CCC=CC=CC(O)CCC(=O)O (stereo not drawn) [4,17S-diHDHA]",inhibition of polymorphonuclear leukocyte infiltration,[4],dose-dependent inhibition; also recorded: some inhibition
"CCCCC/C=C\C[C@@H](O)/C=C/C=C/C=C\[C@@H](O)CCCC(=O)O [LTB4, leukotriene B4]",inhibition of oxidative stress (TNFα/H2O2)-induced Hoechst-positive cells / apoptosis,ARPE-19 cells,partially inhibitory
"CCCCC/C=C\C/C=C\C/C=C\C/C=C\CCCC(=O)O [Arachidonic acid, arachidonic acid]",inhibition of oxidative stress (TNFα/H2O2)-induced Hoechst-positive cells / apoptosis,ARPE-19 cells,partially effective
"CCCCC[C@H](O)/C=C/[C@H]1[C@H](O)CC(=O)[C@@H]1C/C=C\CCCC(=O)O [PGE2, prostaglandin E2]",inhibition of oxidative stress (TNFα/H2O2)-induced Hoechst-positive cells / apoptosis,ARPE-19 cells,"neither PGE2, LTB4, nor 20-OH-LTB4 (each at 50 nM) was able to elicit the degree of inhibition"
CC(=O)Oc1ccccc1C(=O)O [aspirin],effect on accumulation of PGE2 in hippocampus within 8 h of reperfusion,[5],inhibited
